The values below come from ChEMBL document CHEMBL1681747, “Novel second generation analogs of eribulin. Part II: Orally available and active against resistant tumors in vivo” (Bioorg Med Chem Lett, 2011).

pIC50: −log10 of the molar value. The source made the active and inactive calls. No cut-off for these calls is given here.

What is called pIC50 is −log10 of the IC50, conventionally taken in molar units. Read a high pIC50 as a low IC50. The AUC(0-inf) is the area under the concentration-time curve extrapolated to infinity. The half-life is the time in which the quantity being followed falls by half. High values mean slow decline, low ones rapid decline. In general, clearance refers to a measure of how efficiently the substance is removed, as volume per time. Broadly, the bioavailability is the share of a dose that reaches the circulation, judged against a reference dose that is usually intravenous. Broadly, the Tmax is the time at which the peak concentration occurs.

For data set [1], the system named is DLD-1. Kind of data set: Antitumor activity against human DLD1 cells xenografted in athymic mouse assessed as tumor stasis at 1.3 to 3 mg/kg, iv administered 2 weeks after tumor implantation qd for weekly 3 days. The format is functional, organism-based. (In general: A xenograft is tissue or cells of one species grown in another, often human tumour cells in immunodeficient mice.)

Data set [2] concerns DLD-1. As to the kind of experiment: Cytotoxicity against human DLD1 cells. In kind it is functional, cell-based.
The test system of another data set is HCT-15. As to the kind of experiment: Cytotoxicity against human HCT15 cells. The format is functional, cell-based.
Data set [3] can be described thus: AUC (0 to infinity) in BALB/c mouse at 5 mg/kg. In kind it is ADME, organism-based. On the set-up: time infinity, dose 5 mg/kg. The following applies: plasma.
Data set [4] is described as follows: Half life in BALB/c mouse at 5 mg/kg. The following applies: in vivo. In kind it is ADME, organism-based. On the set-up: dose 5 mg/kg.
A short description of data set [5]: Volume of distribution at steady state in BALB/c mouse at 5 mg/kg, iv. In kind it is ADME, organism-based. The arrangement: dose 5 mg/kg, route intravenous. The following applies: in vivo, read-out: Vdss.
A short description of data set [6]: Clearance in BALB/c mouse at 5 mg/kg, iv. In kind it is ADME, organism-based. The arrangement: dose 5 mg/kg, route intravenous. The note with it: in vivo.
Data set [7] is described as follows: Oral bioavailability in BALB/c mouse at 5 mg/kg. The note with it: in vivo. The format is ADME, organism-based.
A short description of data set [8]: Tmax in BALB/c mouse at 5 mg/kg. In kind it is ADME, organism-based. The arrangement: dose 5 mg/kg. The following applies: in vivo.
Data set [9] deals with DLD-1. Kind of data set: Antitumor activity against human DLD1 cells xenografted in iv dosed athymic mouse assessed as tumor growth inhibition administered qd for weekly 3 days. The format is functional, organism-based.
A further data set concerns LOX. As to the kind of experiment: Antitumor activity against human LOX cells xenografted in athymic mouse assessed as long term tumor regression at 0.95 to 3 mg/kg, po administered 6 days after tumor implantation qd for 2 weeks. In kind it is functional, organism-based.
Data set [10] in a line: AUC (0 to infinity) in BALB/c mouse at 10 mg/kg. The format is ADME, organism-based. The note with it: plasma. On the set-up: time infinity, dose 10 mg/kg.
The nature of data set [11]: Half life in BALB/c mouse at 10 mg/kg. In kind it is ADME, organism-based. On the set-up: dose 10 mg/kg. The following applies: in vivo.
Data set [12] is described as follows: Volume of distribution at steady state in BALB/c mouse at 10 mg/kg, iv. The following applies: in vivo, read-out: Vdss. In kind it is ADME, organism-based. The arrangement: dose 10 mg/kg, route intravenous.
Data set [13] is described as follows: Clearance in BALB/c mouse at 10 mg/kg, iv. The following applies: in vivo. On the set-up: dose 10 mg/kg, route intravenous. In kind it is ADME, organism-based.
A short description of data set [14]: Oral bioavailability in BALB/c mouse at 10 mg/kg. The format is ADME, organism-based. The following applies: in vivo.
Data set [15] can be described thus: Tmax in BALB/c mouse at 10 mg/kg. The note with it: in vivo. On the set-up: dose 10 mg/kg. The format is ADME, organism-based.
Data set [16] can be described thus: Cytotoxicity against human MES-SA cells. The format is functional, cell-based.
Data set [17] is described as follows: Cytotoxicity against human MES-SA/Dx5-Rx1 cells. In kind it is functional, cell-based.
The next data set has as its system MES-SA. Kind of data set: Fold resistant ratio of IC50 for MES-SA/Dx5-Rx1 cells to IC50 for human MES-SA cells.

In the case of `C=C1C[C@@H]2CC[C@@]34C[C@H]5O[C@H]6[C@@H](O3)[C@H]3O[C@H](CC[C@@H]3O[C@H]6[C@H]5O4)CC(=O)C[C@@H]3[C@@H](OC)[C@@H](C[C@@H](CN4CCOCC4)OC)O[C@H]3C[C@H]3O[C@@H](CC[C@@H]1O2)C[C@@H](C)C3=C`, the result in the data set with DLD-1 [1] and in the data set with LOX was Active. For the same molecule, the pIC50 in the data set on DLD-1 [2] is 9.64; in the data set with HCT-15, 9.70. The AUC(0-inf) in data set [3] worked out at 1090 ng·h/mL. For the same molecule, the half-life in [4] is 54 min. Also, the Vd in data set [5] worked out at 0.92 L/kg. Besides, in [6], the clearance was 11.3 mL/min/kg. In data set [7], this molecule returned a bioavailability of 14.9%. For the same molecule, the Tmax in data set [8] is 5 min. Also, in the data set with DLD-1 [9], the Activity result was “Dose-dependent effect”.

Turning to `C=C1C[C@@H]2CC[C@@]34C[C@H]5O[C@H]6[C@@H](O3)[C@H]3O[C@H](CC[C@@H]3O[C@H]6[C@H]5O4)CC(=O)C[C@@H]3[C@@H](OC)[C@@H](C[C@H](O)CN)O[C@H]3C[C@H]3O[C@@H](CC[C@@H]1O2)C[C@@H](C)C3=C` [ERIBULIN], the AUC(0-inf) in [10] came out at 161 ng·h/mL. Also, the half-life in [11] was 924 min. Also, in data set [12], the Vd turned out to be 4.95 L/kg. In data set [13], the clearance is 19.8 mL/min/kg. In addition, the bioavailability in [14] came out at 3.2%. Besides, the Tmax in data set [15] was 5 min.

For the molecule `C=C1C[C@@H]2CC[C@@]34C[C@H]5O[C@H]6[C@@H](O3)[C@H]3O[C@H](CC[C@@H]3O[C@H]6[C@H]5O4)CC(=O)C[C@@H]3[C@@H](OC)[C@@H](CCNCC(F)F)O[C@H]3C[C@H]3O[C@@H](CC[C@@H]1O2)C[C@@H](C)C3=C`, the pIC50 with DLD-1 [2] was 8.50; in the data set with HCT-15 it was 8.51. For the same molecule, in data set [3], the AUC(0-inf) worked out at 63 ng·h/mL. In [4], the half-life was 246 min. For the same molecule, in data set [5], the Vd is 4.78 L/kg. For the same molecule, the clearance in data set [6] was 48.5 mL/min/kg. This molecule showed a bioavailability in data set [7] of 11.3%. In data set [8], the Tmax was 5 min.

As for `C=C1C[C@@H]2CC[C@@]34C[C@H]5O[C@H]6[C@@H](O3)[C@H]3O[C@H](CC[C@@H]3O[C@H]6[C@H]5O4)CC(=O)C[C@@H]3[C@@H](OC)[C@@H](CC(=O)CN4CCOCC4)O[C@H]3C[C@H]3O[C@@H](CC[C@@H]1O2)C[C@@H](C)C3=C`, the pIC50 was 9.15 with DLD-1 [2] and 9.34 in the data set with HCT-15. Further, the AUC(0-inf) in data set [3] came to 236 ng·h/mL. This molecule gave a half-life in data set [4] of 102 min. Also, in data set [5], the Vd came to 3.64 L/kg. This molecule also had a clearance in data set [6] of 47 mL/min/kg. The molecule further yielded a bioavailability in data set [7] of 13.3%. Moreover, in data set [8], the Tmax is 5 min.

Turning to `C=C1C[C@@H]2CC[C@@]34C[C@H]5O[C@H]6[C@@H](O3)[C@H]3O[C@H](CC[C@@H]3O[C@H]6[C@H]5O4)CC(=O)C[C@@H]3[C@@H](OC)[C@@H](C[C@@H](CN4CC4C)OC)O[C@H]3C[C@H]3O[C@@H](CC[C@@H]1O2)C[C@@H](C)C3=C` (stereo partly drawn), the pIC50 in [16] was 9.89; in data set [17], 8.59; in the data set with DLD-1 [2], 9.54; in the data set with HCT-15, 9.40. In the data set on MES-SA, the “Ratio IC50” value was 19.91.
